Test results from patent publication US7786141B2 (Vertex Pharmaceuticals Incorporated, priority 2004, dated 2010).

Assays:
[1] = target: T1, M4 muscarinic receptor (Homo sapiens, UniProt P08173); test: Functional mobilization of intracellular calcium (FLIPR) in M4-CHO cells; assay type: cell-based; settings: M4 receptor, calcium mobilization; for Emax: read-out: M4 Efficacy
T1 construct: expressed in transfected cells; host or cells: CHO (M4-CHO)
T1 sequence (P08173 1-479): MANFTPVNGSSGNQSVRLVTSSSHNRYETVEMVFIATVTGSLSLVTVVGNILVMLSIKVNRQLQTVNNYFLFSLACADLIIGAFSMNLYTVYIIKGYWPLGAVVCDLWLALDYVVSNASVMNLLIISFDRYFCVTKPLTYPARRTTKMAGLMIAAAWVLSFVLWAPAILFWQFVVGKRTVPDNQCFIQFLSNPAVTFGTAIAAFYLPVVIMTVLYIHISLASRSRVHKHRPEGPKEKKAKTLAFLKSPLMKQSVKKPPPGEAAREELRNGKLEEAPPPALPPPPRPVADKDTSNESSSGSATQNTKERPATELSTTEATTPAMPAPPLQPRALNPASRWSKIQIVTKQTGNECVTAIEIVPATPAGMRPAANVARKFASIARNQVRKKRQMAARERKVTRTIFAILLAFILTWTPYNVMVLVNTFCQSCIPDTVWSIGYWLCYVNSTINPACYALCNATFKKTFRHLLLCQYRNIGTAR
Description: (§1) Functional Mobilization of Intracellular Calcium to Determine Muscarinic Receptor Activity:
(§2) CHO cells expressing muscarinic receptors (M1 to M5) are grown as monolayers in tissue culture flasks at 37° C. in a humidified atmosphere containing 5% CO2 and passaged every 3-5 days. The growth media is Dulbecco's modified eagles medium (DMEM, Gibco Cat# 12430-054), containing 25 mM Hepes and supplemented with Fetal Bovine Serum (Hyclone, cat# SH30071.03), 0.1 mM of MEM non-essential amino acids (GIBCO, Cat# 11140-050), 1 mM MEM Sodium Pyruvate (GIBCO Cat# 11360-070) and 100 units/ml of Penicillin G and 100 μg/ml of Streptomycin (GIBCO Cat# 15140-122). The recombinant muscarinic receptor cell lines are grown under antibiotic pressure with media containing 25 μg/ml zeocin and 500 μg/ml G418 (M1-CHO), 4 μg/ml puromycin, 50 μg/ml zeocin and 2.5 μg/ml blasticidin (M2 and M4-CHO) or 50 μg/ml zeocin and 4 μg/ml puromycin (M3 and M5-CHO).
(§3) Cells are harvested at 80-90% confluence using Versene (GIBCO Cat# 15040-066), collected by centrifugation and seeded 18-24 hrs prior to running the calcium assay at a density of 5,000 cells/well in back-walled, clear-bottomed 384-well plates (BD Biocoat, poly-D-lysine, Cat#356663). The day of the experiment, the cells are washed with a plate washer (Bioteck Instruments, ELX 405) using bath 1 buffer (140-mM NaCl, 4.5-mM KCl, 2-mM CaCl2, 1-mM MgCl2, 10-mM Hepes-Na, 10-mM Glucose, pH 7.4, with NaOH) containing 1 mM Probenecid. Next, the calcium dye Fluo-3 (25 μl/well of Fluo-3 AM at 4 μM, Molecular Probes F-1241, in Bath 1 buffer containing 1 mM Probenecid) is added to the 25 μl of Bath 1 remaining in each well after the plate wash and the dye is loaded at 37° C. in the tissue culture incubator for 60-90 min. The fluorescent dye is removed using the plate washer with Bath 1 containing 1 mM Probenecid, leaving 25 μl/well of this solution after the wash. Alternatively, cells can be loaded with the calcium indicator from Molecular Devices (Calcium 3 Assay Reagents, Cat # R7181) adding 5 μl of a 5× solution dye in Bath 1 containing 1 mM Probenecid (10 ml per dye flask cat# R7182 to generate a solution 20×) to 20 μl of the same buffer. After loading for 60 min, the experiment can be run without having to remove the dye.
(§4) Compounds are prepared at a 2× fold concentration in a 96-well plate (round bottom, Costar Corning cat# 3656), by reconstituting the pre-spotted compounds in bath 1 containing 1 mM probenecid. The final concentration DMSO is 0.5%, and the amount of DMSO is normalized across the assay plate. To determine an agonist action of the compounds on muscarinic receptors, the reconstituted compounds are added (25 μl compound/well) to the cell assay plate (containing 25 μl/well) using the multi-channel robotic system of the FLIPR 3 Instrument (Molecular Devices, Sunnyvale, Calif.). To determine a functional inhibitory action of the compounds on muscarinic receptors, the reconstituted compounds are added (25 μl compound/well) to the assay plate and pre-incubated for 15 min prior to adding 25 μl of Carbachol at 3× the EC80 for each muscarinic subtype. Alternatively, the compounds can be co-applied simultaneously with the agonist. In both assay modes, the fluorescence is recorded for 60 sec (excitation wavelength is […] and emission wavelength 540 nm) using the FLIPR 3 instrument.
(§5) The potency, efficacy and selectivity of the muscarinic compounds were evaluated by screening the compound activity across the whole family (M1 to M5 cells). Compounds were also screened for activity on other proteins such as other GPCRs and ion channels to determine selectivity on M4 receptors.

[2] = target: T2, M1 muscarinic receptor (Homo sapiens, UniProt P11229); test: Functional mobilization of intracellular calcium (FLIPR) in M1-CHO cells; assay type: cell-based; settings: M1 receptor, calcium mobilization; for Emax: read-out: M1 Efficacy
T2 construct: expressed in transfected cells; host or cells: CHO (M1-CHO)
T2 sequence (P11229 1-460): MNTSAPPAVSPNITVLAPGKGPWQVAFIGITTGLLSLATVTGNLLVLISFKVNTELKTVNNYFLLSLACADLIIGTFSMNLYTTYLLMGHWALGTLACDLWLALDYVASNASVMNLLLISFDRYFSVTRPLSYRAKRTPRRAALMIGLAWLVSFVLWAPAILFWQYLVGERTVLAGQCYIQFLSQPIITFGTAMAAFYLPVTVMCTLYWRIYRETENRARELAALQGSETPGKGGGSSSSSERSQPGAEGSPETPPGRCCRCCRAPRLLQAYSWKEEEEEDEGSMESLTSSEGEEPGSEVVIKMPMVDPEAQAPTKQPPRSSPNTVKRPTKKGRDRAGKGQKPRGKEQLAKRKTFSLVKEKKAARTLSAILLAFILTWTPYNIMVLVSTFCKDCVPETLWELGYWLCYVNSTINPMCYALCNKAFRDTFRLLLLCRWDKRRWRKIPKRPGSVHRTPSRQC
Description: as §1, §2, §3, §4, §5

`CCOC(=O)N1CCC(N2CCC3(CC2)CN(C(=O)OCC(C)(C)C)c2ccc(F)cc23)CC1` [compound 63] was tested, and the “M4 Activity” value [1] was “x (activity was measured to be greater than 1.0 μM)”, the Emax [1] was less than 65% and the “M1 Activity” value [2] was “xxx (activity was measured to be less than 0.1 μM)”. The Emax [2] was less than 65%.

In the case of `Clc1ccc2c(c1)C1(CCO2)CCN(C[C@H]2C[C@H]3C=C[C@H]2C3)CC1` [compound 64], the “M4 Activity” value [1] is reported as “xx (activity was measured to be between 0.1 μM and 1.0 μM)”, the Emax [1] is reported as less than 65% and the “M1 Activity” value [2] is reported as “xxx (activity was measured to be less than 0.1 μM)”. It also gave an Emax [2] of less than 65%.

`COCCOC(=O)N1CCCC(N2CCC3(CC2)CN(C(C)=O)c2ccc(F)cc23)CC1` (stereo not shown) [compound 65] was tested, and the “M4 Activity” value [1] was “x (activity was measured to be greater than 1.0 μM)”, the Emax [1] was less than 65% and the “M1 Activity” value [2] was “xx (activity was measured to be between 0.1 μM and 1.0 μM)”. The Emax [2] was 65 to 85%.

`CCOC(=O)N1CCC(N2CCC3(CC2)CN(C(=O)c2ccc(OC(F)(F)F)cc2)c2ccc(F)cc23)CC1` [compound 66] was tested, and the “M4 Activity” value [1] was “xxx (activity was measured to be less than 0.1 μM)”, the Emax [1] was greater than 85% and the “M1 Activity” value [2] was “xxx (activity was measured to be less than 0.1 μM)”. The Emax [2] was greater than 85%.

With `CC(=O)N1CC2(CCN(C3CC4CCC(C3)N4C(=O)O[C@@H]3CCOC3)CC2)c2cc(F)ccc21` (stereo partly shown) [compound 67] the “M4 Activity” value [1] was “xx (activity was measured to be between 0.1 μM and 1.0 μM)”, the Emax [1] was less than 65% and the “M1 Activity” value [2] was “xxx (activity was measured to be less than 0.1 μM)”. It also gave an Emax [2] of less than 65%.

In the case of `O=C(OC1CCC1)N1C2CCC1CC(N1CCC3(CCc4ccccc43)CC1)C2` (stereo not shown) [compound 68], the “M4 Activity” value [1] is reported as “x (activity was measured to be greater than 1.0 μM)”, the Emax [1] is reported as less than 65% and the “M1 Activity” value [2] is reported as “xx (activity was measured to be between 0.1 μM and 1.0 μM)”. The Emax [2] was less than 65%.

For `O=C(C1CCC1)N1CC2(CCN(C3CC4CCC(C3)N4C(=O)O[C@@H]3CCOC3)CC2)c2cc(F)ccc21` (stereo partly shown) [compound 69], the “M4 Activity” value [1] was “xx (activity was measured to be between 0.1 μM and 1.0 μM)”, the Emax [1] was less than 65% and the “M1 Activity” value [2] was “xx (activity was measured to be between 0.1 μM and 1.0 μM)”. For the same compound, the Emax [2] was less than 65%.

`CS(=O)(=O)N[C@H]1CC2(CCN(C[C@H]3C[C@H]4C=C[C@H]3C4)CC2)c2ccccc21` [compound 70] was tested, and the “M4 Activity” value [1] was “x (activity was measured to be greater than 1.0 μM)”, the Emax [1] was 65 to 85% and the “M1 Activity” value [2] was “xx (activity was measured to be between 0.1 μM and 1.0 μM)”. It also gave an Emax [2] of 65 to 85%.

For `COCCOC(=O)N1C2CCC1CC(N1CCC3(CC1)C(=O)Nc1ccccc13)C2` (stereo not shown) [compound 71], the “M4 Activity” value [1] was “xx (activity was measured to be between 0.1 μM and 1.0 μM)”, the Emax [1] was less than 65% and the “M1 Activity” value [2] was “xxx (activity was measured to be less than 0.1 μM)”. It also gave an Emax [2] of less than 65%.

For `Cc1ccc2c(c1)C1(CCN(C3C4CCCC3CCC4)CC1)CN2` (stereo not shown) [compound 72], the “M4 Activity” value [1] was “xx (activity was measured to be between 0.1 μM and 1.0 μM)”, the Emax [1] was 65 to 85% and the “M1 Activity” value [2] was “xxx (activity was measured to be less than 0.1 μM)”. For the same compound, the Emax [2] was 65 to 85%.

For `CCOC(=O)N1C2CCC1CC(N1CCC3(CC1)CN(C(=O)c1cc(C)oc1C)c1ccc(F)cc13)C2` (stereo not shown) [compound 73], the “M4 Activity” value [1] was “xx (activity was measured to be between 0.1 μM and 1.0 μM)”, the Emax [1] was 65 to 85% and the “M1 Activity” value [2] was “xxx (activity was measured to be less than 0.1 μM)”. It also gave an Emax [2] of 65 to 85%.

In the case of `CCCc1ccc2c(c1)C1(CCN(C3CCN(C(=O)OCC)CC3)CC1)CN2C(C)=O` [compound 74], the “M4 Activity” value [1] is reported as “xx (activity was measured to be between 0.1 μM and 1.0 μM)”, the Emax [1] is reported as 65 to 85% and the “M1 Activity” value [2] is reported as “xxx (activity was measured to be less than 0.1 μM)”. It also gave an Emax [2] of 65 to 85%.

For `CC(=O)N1CC2(CCN(CC3CCCOC3)CC2)c2cc(F)ccc21` (stereo not shown) [compound 75], the “M4 Activity” value [1] was “xx (activity was measured to be between 0.1 μM and 1.0 μM)”, the Emax [1] was 65 to 85% and the “M1 Activity” value [2] was “xxx (activity was measured to be less than 0.1 μM)”. For the same compound, the Emax [2] was less than 65%.

For `COCCOC(=O)N1C2CCC1CC(N1CCC3(CC1)CN(C(C)=O)c1ccc(F)cc13)C2` (stereo not shown) [compound 76], the “M4 Activity” value [1] was “xx (activity was measured to be between 0.1 μM and 1.0 μM)”, the Emax [1] was 65 to 85% and the “M1 Activity” value [2] was “xxx (activity was measured to be less than 0.1 μM)”. The Emax [2] was 65 to 85%.

In the case of `CCOC(=O)N1CCC(N2CCC3(CC2)CN(C(=O)c2ccc(F)cc2)c2ccc(F)cc23)CC1` [compound 77], the “M4 Activity” value [1] is reported as “xx (activity was measured to be between 0.1 μM and 1.0 μM)”, the Emax [1] is reported as less than 65% and the “M1 Activity” value [2] is reported as “xxx (activity was measured to be less than 0.1 μM)”. It also gave an Emax [2] of 65 to 85%.

For `CCOC(=O)N1CCC(N2CCC3(CC2)CN(C(C)=O)c2ccc(-c4ccccc4C)cc23)CC1` [compound 78], the “M4 Activity” value [1] was “xx (activity was measured to be between 0.1 μM and 1.0 μM)”, the Emax [1] was less than 65% and the “M1 Activity” value [2] was “xxx (activity was measured to be less than 0.1 μM)”. It also gave an Emax [2] of 65 to 85%.

For `CCCOC(=O)N1CCC(N2CCC3(CC2)CN(C(C)=O)c2ccc(F)cc23)CC1` [compound 79], the “M4 Activity” value [1] was “x (activity was measured to be greater than 1.0 μM)”, the Emax [1] was less than 65% and the “M1 Activity” value [2] was “xx (activity was measured to be between 0.1 μM and 1.0 μM)”. For the same compound, the Emax [2] was less than 65%.

With `COCCOC(=O)N1CC2(CCN(C3CC4CCC(C3)N4C(=O)O[C@H]3CCOC3)CC2)c2cc(F)ccc21` (stereo partly shown) [compound 80] the “M4 Activity” value [1] was “xx (activity was measured to be between 0.1 μM and 1.0 μM)”, the Emax [1] was less than 65% and the “M1 Activity” value [2] was “xx (activity was measured to be between 0.1 μM and 1.0 μM)”. For the same compound, the Emax [2] was less than 65%.

For `C#CCOC(=O)N1CCC(N2CCC3(CC2)CN(C(C)=O)c2ccc(C)cc23)CC1` [compound 81], the “M4 Activity” value [1] was “x (activity was measured to be greater than 1.0 μM)”, the Emax [1] was less than 65% and the “M1 Activity” value [2] was “xx (activity was measured to be between 0.1 μM and 1.0 μM)”. For the same compound, the Emax [2] was less than 65%.
